What was measured:
PDE7A [1] = molecular target: T1, PDE7A (Homo sapiens, UniProt Q13946); assay: in vitro enzyme assay PDE7A; assay type: biochemical; design: made in house; host or cells: E. coli; details: 2 micromolar compound; read-out: percent of PDE activity present, PDE7A
PDE4D = PDE4D (Homo sapiens, UniProt Q08499); assay: in vitro enzyme assay PDE4D (Table 7); assay type: biochemical; details: 2 micromolar compound; read-out: percent of PDE activity present, PDE4D
PDE4B = PDE4B (Homo sapiens, UniProt Q07343); assay: in vitro enzyme assay PDE4B (Table 7); assay type: biochemical; details: 2 micromolar compound; read-out: percent of PDE activity present, PDE4B
Sequence of PDE4B (Q07343 whole entry, species assumed): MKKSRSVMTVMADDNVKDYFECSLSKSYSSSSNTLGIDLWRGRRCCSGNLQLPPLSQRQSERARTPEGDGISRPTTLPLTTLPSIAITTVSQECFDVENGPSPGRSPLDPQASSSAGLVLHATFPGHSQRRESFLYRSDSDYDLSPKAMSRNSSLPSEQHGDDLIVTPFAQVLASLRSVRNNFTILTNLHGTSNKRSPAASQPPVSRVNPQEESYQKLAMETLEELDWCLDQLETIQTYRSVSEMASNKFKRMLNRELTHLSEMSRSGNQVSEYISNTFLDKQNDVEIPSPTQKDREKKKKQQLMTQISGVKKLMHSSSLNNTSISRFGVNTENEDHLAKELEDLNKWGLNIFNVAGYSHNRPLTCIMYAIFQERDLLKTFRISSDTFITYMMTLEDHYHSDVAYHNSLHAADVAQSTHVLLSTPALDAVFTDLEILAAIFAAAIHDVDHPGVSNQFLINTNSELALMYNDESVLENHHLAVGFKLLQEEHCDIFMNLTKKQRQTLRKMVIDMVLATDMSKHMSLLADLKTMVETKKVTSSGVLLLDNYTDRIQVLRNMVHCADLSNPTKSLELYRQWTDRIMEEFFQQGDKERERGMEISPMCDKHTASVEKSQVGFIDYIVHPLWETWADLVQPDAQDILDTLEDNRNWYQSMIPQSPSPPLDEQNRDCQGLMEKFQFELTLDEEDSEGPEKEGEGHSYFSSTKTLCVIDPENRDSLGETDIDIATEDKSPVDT

PDE4A = PDE4A (Homo sapiens, UniProt P27815); assay: in vitro enzyme assay PDE4A (Table 7); assay type: biochemical; details: 2 micromolar compound; read-out: percent of PDE activity present, PDE4A
Sequence of PDE4A (P27815 whole entry, species assumed): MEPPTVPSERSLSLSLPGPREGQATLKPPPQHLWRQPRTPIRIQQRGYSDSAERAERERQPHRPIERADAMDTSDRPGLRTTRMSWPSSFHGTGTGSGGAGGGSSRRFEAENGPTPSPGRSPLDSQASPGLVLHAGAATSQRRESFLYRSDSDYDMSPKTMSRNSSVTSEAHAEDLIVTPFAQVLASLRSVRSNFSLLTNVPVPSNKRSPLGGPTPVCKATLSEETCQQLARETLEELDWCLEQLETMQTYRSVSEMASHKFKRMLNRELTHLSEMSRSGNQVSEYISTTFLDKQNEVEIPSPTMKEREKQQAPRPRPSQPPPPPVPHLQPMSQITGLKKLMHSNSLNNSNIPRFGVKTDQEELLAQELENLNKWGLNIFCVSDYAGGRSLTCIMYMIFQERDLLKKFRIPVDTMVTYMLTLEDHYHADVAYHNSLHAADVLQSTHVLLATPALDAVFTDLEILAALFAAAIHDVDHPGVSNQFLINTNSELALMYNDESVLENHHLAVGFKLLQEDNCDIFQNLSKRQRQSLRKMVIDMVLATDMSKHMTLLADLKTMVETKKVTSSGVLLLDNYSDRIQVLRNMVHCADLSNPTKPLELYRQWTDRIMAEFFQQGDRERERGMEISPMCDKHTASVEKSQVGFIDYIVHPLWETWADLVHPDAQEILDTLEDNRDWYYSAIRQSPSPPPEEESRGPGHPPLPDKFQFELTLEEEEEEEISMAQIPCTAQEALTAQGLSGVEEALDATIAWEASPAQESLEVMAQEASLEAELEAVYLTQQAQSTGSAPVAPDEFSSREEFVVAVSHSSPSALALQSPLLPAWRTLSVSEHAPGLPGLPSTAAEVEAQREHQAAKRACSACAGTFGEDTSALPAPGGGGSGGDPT

[2] = tested on: PDE4A, PDE4B, PDE4D, PDE7A, PDE7B, PDE8A, PDE3A; assay: Summary of PDE inhibitor profile; design: key to inhibitor class, Table 16: (1): Weak PDE7A inhibitor; (2): Strong PDE7A inhibitor; (3): Lillte/no activity under conditions used; (4): Weak PDE4A inhibitor
PDE7A [3] = molecular target: T1, PDE7A; assay: 5FOA growth assay in fission yeast strain expressing PDE7A; assay type: cell-based; design: targets used in the assays are full-length proteins (as opposed to simply the catalytic domain); expressed in transfected cells; host or cells: Schizosaccharomyces pombe, PDE gene integrated in place of cgs2; details: unit not given
Protocol: PDE inhibition allows growth in 5FOA medium as measured by optical density after 48 hours incubation at 30° C. Compound BC12 and six structural analogs were tested for growth stimulation.
Cells were pregrown in EMM medium [MP Biomedicals (Solon, Ohio), 3% glucose, filter-sterilized to avoid carmelization, which would introduce variability into the optical density of the medium] containing from 0 mM to 2.5 mM cAMP (or either 0.5 mM or 1.0 mM cGMP). This was to repress expression of the fbp1-ura4 reporter prior to exposure of cells to 5FOA medium. Cells were grown at 30° C. to exponential phase (approximately 10^7 cells/ml). Cells were collected by centrifugation and resuspended in 5FOA medium, and 25 μl were transferred to 384-well microtiter dishes (untreated, with flat clear bottoms) that had been pre-filled with 25 μl 5FOA medium and pre-pinned with 100 nl of compounds (stock solutions were generally 10 mM). Starting cell concentrations ranged from 0.5×10^5 to 4×10^5 cells/ml depending on the screening strain. […] Other positive control dishes contained 5 mM cAMP in the 5FOA medium for PDEs that lack appropriate control compounds. Cultures were grown for 48 hours at 30° C., sealed in an airtight container with moist paper towels to prevent evaporation. Optical densities (OD600) of cultures were measured using a microplate reader. Bioinformatic analysis of the results to determine composite Z scores was performed as previously described (1, 3).

PDE4B3 = molecular target: T2, PDE4B3 (Mus musculus, UniProt Q8VBU5); assay: 5FOA growth assay in fission yeast strain expressing PDE4B3; assay type: cell-based, Murine; details: 20 uM
T2 construct: targets used in the assays are full-length proteins (as opposed to simply the catalytic domain); expressed in transfected cells; host or cells: Schizosaccharomyces pombe, PDE gene integrated in place of cgs2
T2 sequence (Q8VBU5 1-721): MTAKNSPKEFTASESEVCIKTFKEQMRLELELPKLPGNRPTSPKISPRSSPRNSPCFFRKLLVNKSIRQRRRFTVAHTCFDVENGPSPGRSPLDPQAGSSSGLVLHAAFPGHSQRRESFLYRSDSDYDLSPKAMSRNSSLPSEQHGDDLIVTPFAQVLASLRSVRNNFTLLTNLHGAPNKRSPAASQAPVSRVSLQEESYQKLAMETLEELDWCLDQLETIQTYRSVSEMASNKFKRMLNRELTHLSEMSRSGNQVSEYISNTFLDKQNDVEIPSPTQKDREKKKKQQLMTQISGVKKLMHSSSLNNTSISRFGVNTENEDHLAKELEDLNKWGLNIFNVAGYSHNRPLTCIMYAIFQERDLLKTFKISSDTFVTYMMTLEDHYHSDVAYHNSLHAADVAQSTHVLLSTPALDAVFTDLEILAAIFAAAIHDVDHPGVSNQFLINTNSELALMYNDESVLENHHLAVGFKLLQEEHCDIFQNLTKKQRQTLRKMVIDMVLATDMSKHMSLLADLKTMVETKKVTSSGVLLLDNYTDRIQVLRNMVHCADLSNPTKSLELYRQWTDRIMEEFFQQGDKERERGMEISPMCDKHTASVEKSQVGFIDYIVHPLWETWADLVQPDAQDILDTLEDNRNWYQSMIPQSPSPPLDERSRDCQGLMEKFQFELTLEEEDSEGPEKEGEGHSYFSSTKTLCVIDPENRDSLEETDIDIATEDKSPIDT
How it was run: (§1)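 Fission yeast strains carrying mouse PDE4A1 or PDE4B3 and an fbp1-ura4 reporter were pregrown in EMM with 0.5–2.5 mM cAMP, then seeded at 0.5–4×10^5 cells/ml in 5FOA medium with compound. Growth was read as OD600 after 48 h at 30° C; composite Z scores were derived.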

U937 cells = assay: TNF alpha release by LPS-treated U937 cells; assay type: cell-based
PDE4D2-CAT = molecular target: T3, PDE4D2-CAT (Homo sapiens, UniProt Q08499); assay: in vitro enzyme assay, catalytic fragment of PDE4D2 (residues 86-413); assay type: biochemical
T3 construct: 86-413; made in house; host or cells: E. coli
T3 sequence (Q08499 388-715): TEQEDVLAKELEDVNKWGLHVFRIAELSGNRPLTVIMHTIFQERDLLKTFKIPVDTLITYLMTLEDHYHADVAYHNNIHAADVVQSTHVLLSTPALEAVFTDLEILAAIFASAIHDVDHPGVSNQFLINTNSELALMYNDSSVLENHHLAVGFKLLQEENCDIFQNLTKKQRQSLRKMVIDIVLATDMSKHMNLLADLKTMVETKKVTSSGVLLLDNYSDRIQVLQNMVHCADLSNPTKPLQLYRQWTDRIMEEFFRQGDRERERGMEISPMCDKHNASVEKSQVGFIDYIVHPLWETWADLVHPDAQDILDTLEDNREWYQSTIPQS

PDE4A1 = molecular target: T4, PDE4A1 (Mus musculus, UniProt O89084); assay: 5FOA growth assay (high throughput screen, ED50) in fission yeast strain expressing PDE4A1; assay type: cell-based; details: high throughput 5FOA growth screen; greater than 8.53 = statistically-significant inhibitor
T4 construct: targets used in the assays are full-length proteins (as opposed to simply the catalytic domain); expressed in transfected cells; host or cells: Schizosaccharomyces pombe, PDE gene integrated in place of cgs2
T4 sequence (O89084 1-610 isoform O89084-2): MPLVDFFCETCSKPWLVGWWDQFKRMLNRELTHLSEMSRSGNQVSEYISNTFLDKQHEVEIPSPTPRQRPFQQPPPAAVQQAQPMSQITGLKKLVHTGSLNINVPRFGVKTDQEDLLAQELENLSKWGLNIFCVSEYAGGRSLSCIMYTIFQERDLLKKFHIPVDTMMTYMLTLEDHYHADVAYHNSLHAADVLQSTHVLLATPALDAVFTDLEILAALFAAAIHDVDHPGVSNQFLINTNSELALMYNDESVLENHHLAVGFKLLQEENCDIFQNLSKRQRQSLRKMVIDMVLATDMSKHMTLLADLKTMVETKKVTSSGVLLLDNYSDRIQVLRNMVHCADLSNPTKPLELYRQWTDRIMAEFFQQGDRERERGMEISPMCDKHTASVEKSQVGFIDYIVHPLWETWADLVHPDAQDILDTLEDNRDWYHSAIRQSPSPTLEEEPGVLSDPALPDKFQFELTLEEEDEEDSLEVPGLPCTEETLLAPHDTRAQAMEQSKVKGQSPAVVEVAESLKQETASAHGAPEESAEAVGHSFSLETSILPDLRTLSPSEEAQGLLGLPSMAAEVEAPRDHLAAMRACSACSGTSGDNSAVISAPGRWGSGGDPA
How it was run: as §1

Sequence of PDE4D (Q08499 whole entry): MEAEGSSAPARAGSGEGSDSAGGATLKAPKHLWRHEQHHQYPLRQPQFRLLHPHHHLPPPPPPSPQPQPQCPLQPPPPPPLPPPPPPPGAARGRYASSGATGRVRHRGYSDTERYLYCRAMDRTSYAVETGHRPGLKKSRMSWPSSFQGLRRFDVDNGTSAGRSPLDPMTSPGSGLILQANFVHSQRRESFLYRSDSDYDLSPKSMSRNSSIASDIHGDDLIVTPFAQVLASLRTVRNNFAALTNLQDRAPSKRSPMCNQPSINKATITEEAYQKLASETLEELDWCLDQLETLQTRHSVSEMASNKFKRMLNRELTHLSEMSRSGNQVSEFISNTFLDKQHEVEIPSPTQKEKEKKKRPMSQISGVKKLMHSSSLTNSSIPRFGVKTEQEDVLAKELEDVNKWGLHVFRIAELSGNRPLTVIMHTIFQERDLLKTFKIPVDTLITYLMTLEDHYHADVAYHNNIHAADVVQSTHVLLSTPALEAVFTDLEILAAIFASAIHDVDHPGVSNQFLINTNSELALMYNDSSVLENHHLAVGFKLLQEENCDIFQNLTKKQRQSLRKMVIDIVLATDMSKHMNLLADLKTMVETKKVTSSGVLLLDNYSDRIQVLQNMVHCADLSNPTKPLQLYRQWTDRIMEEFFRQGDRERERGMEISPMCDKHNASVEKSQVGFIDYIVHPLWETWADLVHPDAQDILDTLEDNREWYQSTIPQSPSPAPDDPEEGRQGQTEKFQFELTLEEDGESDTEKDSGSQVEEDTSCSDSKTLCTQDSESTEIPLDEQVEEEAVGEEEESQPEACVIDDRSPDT
T1 sequence (Q13946 whole entry): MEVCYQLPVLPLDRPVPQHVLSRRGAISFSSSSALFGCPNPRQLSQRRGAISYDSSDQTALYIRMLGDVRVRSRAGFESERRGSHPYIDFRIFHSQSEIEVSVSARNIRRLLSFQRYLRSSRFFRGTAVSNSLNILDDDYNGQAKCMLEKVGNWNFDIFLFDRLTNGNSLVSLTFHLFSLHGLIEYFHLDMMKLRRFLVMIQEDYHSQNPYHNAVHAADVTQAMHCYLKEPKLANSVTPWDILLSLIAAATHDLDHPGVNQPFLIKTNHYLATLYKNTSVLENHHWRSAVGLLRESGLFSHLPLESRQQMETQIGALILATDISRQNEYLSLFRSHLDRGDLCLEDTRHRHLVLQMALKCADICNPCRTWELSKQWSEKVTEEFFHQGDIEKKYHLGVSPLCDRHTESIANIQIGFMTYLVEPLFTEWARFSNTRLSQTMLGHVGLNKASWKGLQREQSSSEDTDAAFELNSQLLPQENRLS

Cc1nc(N2CCOCC2)c2c(C)c(C(=O)Nc3ccc(F)cc3F)sc2n1 [Compound 58-2]
remaining activity at 2 µM (PDE7A [1]): 88%
remaining activity at 2 µM (PDE4D): 30%
remaining activity at 2 µM (PDE4B): 39%
remaining activity at 2 µM (PDE4A): 26%

N#Cc1sc2sc(C#N)c(-c3cccs3)c2c1N [Compound 30-2]
inhibitor class, Table 16 [2]: 1441, G04 KM03473 30-2 (1)
ED50, 7A (PDE7A [3]): ND ND active/plateaus ND ND
1 Assay (20 uM) 4B3 (PDE4B3): −0.3999 ND ND ND ND

Cc1nc(N2CCCCC2C)c2c(C)c(C(=O)Nc3ccc(F)cc3F)sc2n1 (stereo not shown) [Compound 58-4]
remaining activity at 2 µM (PDE7A [1]): 74%
remaining activity at 2 µM (PDE4D): 54%
remaining activity at 2 µM (PDE4B): 47%
remaining activity at 2 µM (PDE4A): 26%

Cc1c(C(=O)Nc2ccc(F)cc2F)sc2ncnc(N3CCN(C)CC3)c12 [Compound 58-1]
remaining activity at 2 µM (PDE7A [1]): 98%
remaining activity at 2 µM (PDE4D): 90%
remaining activity at 2 µM (PDE4B): 64%
remaining activity at 2 µM (PDE4A): 84%

Cc1ccc([N+](=O)[O-])cc1S(=O)(=O)N(C)C [BRL]
TNF alpha (EtoH = 100.0) (U937 cells; 3 HOURS): 92.5
TNF (U937 cells; 3 HOURS, high BRL): 4565 pg/mL
TNF, % EtOH cntrl (U937 cells; 3 HOURS, high BRL): 94.5%
TNF (U937 cells; 3 HOURS, low BRL): 4491 pg/mL
TNF, % EtOH cntrl (U937 cells; 3 HOURS, low BRL): 93.0%
TNF alpha (EtoH = 100.0) (U937 cells; 20 HOURS): 102.6
TNF (U937 cells; 20 HOURS, high BRL): 13111 pg/mL
TNF, % EtOH cntrl (U937 cells; 20 HOURS, high BRL): 95.8%
TNF (U937 cells; 20 HOURS, low BRL): 12718 pg/mL
TNF, % EtOH cntrl (U937 cells; 20 HOURS, low BRL): 92.9%

N#Cc1sc2sc(C#N)c(-c3ccco3)c2c1N [BC30]
PDE4D catalytic domain, 2 uM cpm (PDE4D2-CAT; 2 uM compound): 2583 cpm
In vitro activation of PDE4D catalytic domain, % activity (PDE4D2-CAT; 2 micromolar compound, DMSO = 100): 139%

Cc1c(C(=O)Nc2ccc3c(c2)OCCO3)sc2ncnc(N3CCc4ccccc4C3)c12 [Compound 58-10]
remaining activity at 2 µM (PDE7A [1]): 84%
remaining activity at 2 µM (PDE4D): 70%
remaining activity at 2 µM (PDE4B): 39%
Composite Z score, PDE4A1 (PDE4A1): 32.338
remaining activity at 2 µM (PDE4A): 60%

N#Cc1sc2sc(C#N)c(-c3ccc(Cl)cc3)c2c1N [Compound 30-3]
inhibitor class, Table 16 [2]: 554, N12 KM03474 30-3 (3)
ED50, 7A (PDE7A [3]): ND ND inactive ND ND
1 Assay (20 uM) 4B3 (PDE4B3): 1.462 ND ND ND ND

CC(C)(C)c1c(C#N)sc2sc(C#N)c(N)c12 [Compound 30-4]
inhibitor class, Table 16 [2]: Maybridge: KM03484 30-4 (3)
ED50, 7A (PDE7A [3]): ND ND weak activity ND ND

From patent US20100227853A1, “INHIBITORS OF CYCLIC AMP PHOSPHODIESTERASES” (Trustees of Boston College, priority 2008, published 2010)
